Patent publication US20070254863A1 (priority 2006, published 2007)
Read-outs that look alike come from different tables or passages of the source.

Columns and labels:
[1] = tested on: rat perifused pancreatic islets; test: KATP opening effects through insulin secretion in rat perifused pancreatic islets; type: cell-based; conditions: 11 mM glucose; for % Inhibition 0-30 (insulin secretion): 0-30 minutes; for % Inhibition 30-60 (insulin secretion): 30-60 minutes
Protocol: Determination of the KATP Opening Effects of Compounds Through Insulin Secretion in Rat Perifused Pancreatic Islets
The animals were maintained on a 12 h light-dark cycle (lights on 06.00-18.00 h) with free access to standard rodent diet (B&K Universal Ltd standard rat and mouse diet (BK 001P), Beekay Feeds, B&K Universal Ltd, Hull, East Riding of Yorkshire) and tap water. The rats were conditioned to this environment for at least one week before experimentation.
Experimental procedures: After the rats were sacrificed, the branch of the bile duct leading to the liver and the duodenal end of the duct in the pancreas were clamped and the pancreas distended by injection of ice-cold 0.9 mg/ml collagenase solution into the bile duct. […] Following incubation, 10 ml of cold buffer was added and the suspension shaken vigorously by hand for 1 min. The islets were allowed to settle for 5 min on ice and washed three times using ice-cold buffer. Well-formed and good-sized islets from three rats were hand-picked (under a low power microscope) and pooled and a final selection of islet transferred to the perifusion apparatus.
Two experiments were performed in parallel in two identical, independent sets of perifusion apparatus each consisting of sufficient number of chambers. Each chamber was loaded with 20 hand-picked islets. Islets were perifused for an initial 30 min period in media containing 4 mM glucose. Perifusate was then collected at 2 min intervals for the remainder of the experiment. […] Perifusate fractions were stored at −75° C. until required for insulin assay. Insulin content of fractions were assayed using a 96-well ELISA assay (Mercodia). Initial insulin assays were performed in triplicate on three pooled fractions from each chamber.
Data were initially expressed as a simple mean of the three experiments for insulin secretion (pg/islet/min) and multiple t-tests (against the corresponding vehicle time period) used to determine potential significant effects of treatments. Alternatively, data were also calculated as a % vehicle effect for each experimental day. This latter approach was deemed to be the more powerful analysis as it corrected for the day to day variation in insulin release from the islets.

[2] = biological target: human cannabinoid CB2 receptor (Homo sapiens, UniProt P34972); test: biochemical; type: binding
Protocol: 3. In Vitro Binding Affinity of the Test Compounds to CB2 Receptors
After incubation of a freshly prepared cell membrane preparation with the [^3H]-ligand, with or without the addition of the compounds described herein, separation of bound and free ligand is performed by filtration over glass-fiber filters. Radioactivity on the filter is measured by liquid scintillation counting.

hamster SUR1 = biological target: T1, hamster SUR1 (Cricetus cricetus, UniProt Q09427); test: In vitro binding affinity to rodent KATP channels: SUR1 ([3H]glibenclamide displacement, COS cell membranes)
T1 construct: expressed in transfected cells; host or cells: COS-1 cells, transient (pcDNA vector)

rat SUR2A = rat SUR2A (Rattus norvegicus, UniProt Q63563); test: In vitro binding affinity to rodent KATP channels: SUR2A ([3H]P1075 / [3H]glibenclamide displacement, COS cell membranes)
Summary of the method: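 COS-cell membranes transiently expressing rat SUR2A incubated 1 h at room temperature in 50 mM Tris pH 7.4, ~0.7 mM free Mg2+, with 3 nM [3H]P1075 (wild type) or [3H]glibenclamide (SUR2AY1205S); filtration read-out. Ki from IC50, reported as pKi; 9-15 concentrations per curve.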

[3] = cloned human CB2 receptor expressed in CHO cells, read-out: Affinity to CB2 (converted)
[4] = hamster SUR1 in COS cell membranes, read-out: Affinity to SUR 1 (converted)

T1 sequence (Q09427 whole entry): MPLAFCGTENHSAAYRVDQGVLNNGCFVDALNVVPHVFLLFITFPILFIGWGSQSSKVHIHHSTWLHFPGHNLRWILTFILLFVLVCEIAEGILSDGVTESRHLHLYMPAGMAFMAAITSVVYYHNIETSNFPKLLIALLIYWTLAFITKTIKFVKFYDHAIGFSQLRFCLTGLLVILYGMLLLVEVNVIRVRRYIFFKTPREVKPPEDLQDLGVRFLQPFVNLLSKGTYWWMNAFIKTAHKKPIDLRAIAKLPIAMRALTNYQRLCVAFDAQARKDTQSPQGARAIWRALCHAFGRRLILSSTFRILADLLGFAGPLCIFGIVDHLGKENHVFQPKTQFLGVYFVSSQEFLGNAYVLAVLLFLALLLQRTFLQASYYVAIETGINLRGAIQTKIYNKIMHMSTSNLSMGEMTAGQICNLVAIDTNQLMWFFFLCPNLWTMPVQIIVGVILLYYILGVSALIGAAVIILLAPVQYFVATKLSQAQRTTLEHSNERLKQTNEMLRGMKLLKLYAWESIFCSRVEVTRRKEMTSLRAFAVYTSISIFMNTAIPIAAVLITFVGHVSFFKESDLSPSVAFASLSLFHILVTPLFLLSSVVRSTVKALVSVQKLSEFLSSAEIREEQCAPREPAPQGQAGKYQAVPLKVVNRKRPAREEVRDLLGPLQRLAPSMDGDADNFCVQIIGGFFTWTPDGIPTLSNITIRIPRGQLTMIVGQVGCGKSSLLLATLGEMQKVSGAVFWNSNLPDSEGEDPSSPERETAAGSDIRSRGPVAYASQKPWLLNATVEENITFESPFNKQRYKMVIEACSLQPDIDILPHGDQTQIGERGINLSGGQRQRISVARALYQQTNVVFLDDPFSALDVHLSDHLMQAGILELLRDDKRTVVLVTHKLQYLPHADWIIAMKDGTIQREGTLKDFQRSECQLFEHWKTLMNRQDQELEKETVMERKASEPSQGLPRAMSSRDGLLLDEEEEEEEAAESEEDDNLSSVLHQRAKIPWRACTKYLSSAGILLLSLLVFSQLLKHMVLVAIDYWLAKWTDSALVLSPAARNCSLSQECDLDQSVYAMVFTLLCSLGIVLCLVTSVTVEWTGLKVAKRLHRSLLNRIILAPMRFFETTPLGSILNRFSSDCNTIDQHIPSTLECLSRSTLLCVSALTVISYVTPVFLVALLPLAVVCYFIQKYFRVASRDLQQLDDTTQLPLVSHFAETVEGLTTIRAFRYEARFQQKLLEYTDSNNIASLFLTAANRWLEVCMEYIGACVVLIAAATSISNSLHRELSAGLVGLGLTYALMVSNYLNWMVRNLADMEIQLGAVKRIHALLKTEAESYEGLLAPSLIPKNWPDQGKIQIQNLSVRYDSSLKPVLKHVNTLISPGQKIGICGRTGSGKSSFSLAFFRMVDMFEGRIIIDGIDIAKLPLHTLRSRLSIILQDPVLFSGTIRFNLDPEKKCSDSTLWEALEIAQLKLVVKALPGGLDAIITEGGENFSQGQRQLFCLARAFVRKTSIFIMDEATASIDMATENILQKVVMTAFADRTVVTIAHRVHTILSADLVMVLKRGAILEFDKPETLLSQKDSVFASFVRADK
rat SUR2A, sequence (Q63563 whole entry): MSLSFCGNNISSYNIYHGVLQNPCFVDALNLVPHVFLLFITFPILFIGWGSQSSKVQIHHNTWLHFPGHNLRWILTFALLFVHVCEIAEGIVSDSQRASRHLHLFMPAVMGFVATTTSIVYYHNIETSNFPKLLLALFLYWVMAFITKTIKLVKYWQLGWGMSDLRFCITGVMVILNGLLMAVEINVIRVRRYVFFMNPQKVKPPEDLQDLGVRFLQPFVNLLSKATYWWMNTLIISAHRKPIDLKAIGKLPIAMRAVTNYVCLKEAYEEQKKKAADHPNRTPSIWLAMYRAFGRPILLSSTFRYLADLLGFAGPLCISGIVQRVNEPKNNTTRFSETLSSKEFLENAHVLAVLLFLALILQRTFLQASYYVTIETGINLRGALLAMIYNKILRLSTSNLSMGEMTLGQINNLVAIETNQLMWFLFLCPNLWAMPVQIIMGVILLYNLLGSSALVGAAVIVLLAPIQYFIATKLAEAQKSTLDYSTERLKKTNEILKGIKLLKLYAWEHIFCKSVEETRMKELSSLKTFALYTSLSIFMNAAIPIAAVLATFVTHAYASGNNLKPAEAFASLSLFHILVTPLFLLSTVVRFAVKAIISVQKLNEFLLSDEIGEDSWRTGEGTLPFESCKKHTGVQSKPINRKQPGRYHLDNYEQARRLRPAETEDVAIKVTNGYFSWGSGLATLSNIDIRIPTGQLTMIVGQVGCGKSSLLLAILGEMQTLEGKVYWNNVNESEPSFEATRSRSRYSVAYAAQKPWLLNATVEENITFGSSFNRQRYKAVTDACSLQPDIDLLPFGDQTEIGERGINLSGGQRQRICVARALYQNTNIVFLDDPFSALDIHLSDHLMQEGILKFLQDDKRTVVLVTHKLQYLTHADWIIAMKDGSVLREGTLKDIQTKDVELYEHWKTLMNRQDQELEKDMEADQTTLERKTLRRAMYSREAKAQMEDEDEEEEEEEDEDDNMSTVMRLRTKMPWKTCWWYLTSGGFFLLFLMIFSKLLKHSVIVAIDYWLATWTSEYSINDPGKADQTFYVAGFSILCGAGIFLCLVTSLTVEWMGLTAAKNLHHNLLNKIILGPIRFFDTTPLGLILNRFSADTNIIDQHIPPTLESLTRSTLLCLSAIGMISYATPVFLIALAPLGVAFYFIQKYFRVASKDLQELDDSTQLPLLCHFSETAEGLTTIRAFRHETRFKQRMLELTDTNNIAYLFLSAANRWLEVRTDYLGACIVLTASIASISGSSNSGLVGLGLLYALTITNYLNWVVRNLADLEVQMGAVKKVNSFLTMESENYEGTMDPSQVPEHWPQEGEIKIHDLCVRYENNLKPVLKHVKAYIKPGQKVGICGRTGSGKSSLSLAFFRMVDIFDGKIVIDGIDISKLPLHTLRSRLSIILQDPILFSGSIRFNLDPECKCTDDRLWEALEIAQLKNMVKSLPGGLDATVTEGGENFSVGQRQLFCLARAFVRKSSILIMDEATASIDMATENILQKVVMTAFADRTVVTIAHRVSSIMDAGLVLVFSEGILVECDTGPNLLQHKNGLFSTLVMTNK
human cannabinoid CB2 receptor, sequence (P34972 whole entry): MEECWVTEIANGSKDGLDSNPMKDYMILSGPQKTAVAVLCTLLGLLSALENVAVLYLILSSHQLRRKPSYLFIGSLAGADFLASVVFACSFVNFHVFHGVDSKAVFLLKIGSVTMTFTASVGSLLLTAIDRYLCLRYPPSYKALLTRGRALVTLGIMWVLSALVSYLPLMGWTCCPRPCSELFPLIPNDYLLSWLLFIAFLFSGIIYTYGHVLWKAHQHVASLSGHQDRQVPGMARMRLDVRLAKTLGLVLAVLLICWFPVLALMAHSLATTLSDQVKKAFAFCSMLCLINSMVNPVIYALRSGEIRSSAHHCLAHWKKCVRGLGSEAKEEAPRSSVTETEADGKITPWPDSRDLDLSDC

| Compound | % Inhibition 0-30 (insulin secretion) [1] [%] | % Inhibition 30-60 (insulin secretion) [1] [%] | Ki [2, 3] [nM] | Ki (hamster SUR1; [4]) [nM] | pKi (rat SUR2A) | other results |
| --- | --- | --- | --- | --- | --- | --- |
| CN/C(=N\S(=O)(=O)N1CCOCC1)N1CC(c2ccccc2)C(c2ccc(Cl)cc2)=N1 (centres unmarked) [drawing 118, Morpholine-4-sulfonic acid [3-(4-chloro-phenyl)-4-phenyl-4,5-dihydro-pyrazol-1-yl]-methylamino-methyleneamide] | 83 | 91 |  |  |  |  |
| CN1CCCCC1Cn1cc(C(=O)c2cc([N+](=O)[O-])ccc2I)c2ccccc21 (centres unmarked) [AM-1241, (2-Iodo-5-nitro-phenyl)-[1-(1-methyl-piperidin-2-ylmethyl)-1H-indol-3-yl]-methanone, reference compound] | 97 | 74 | 15.8 | 3980 |  |  |
| CNC(=NS(=O)(=O)N1CCCCC1)C1=NN(c2ccc(Cl)cc2)C(c2ccccc2)C1 (centres unmarked) [Piperidine-1-sulfonic acid [1-(4-chloro-phenyl)-5-phenyl-4,5-dihydro-1H-pyrazol-3-yl]-methylamino-methyleneamide] | 84 | 47 |  | 794 | 4.5 |  |
| CCCCCCC(C)(C)c1ccc([C@@H]2C[C@H](O)CC[C@H]2CCCO)c(O)c1 (stereo in doubt) [CP55940, 5-(1,1-Dimethyl-heptyl)-2-[5-hydroxy-2-(3-hydroxy-propyl)-cyclohexyl]-phenol, reference compound] | 91 | 56 |  | 5010 |  |  |
| Cc1c(C(=O)c2cccc3ccccc23)c2cccc3c2n1[C@H](CN1CCOCC1)CO3 [drawing 112, (2-Methyl-3-morpholin-4-ylmethyl-3,4-dihydro-5-oxa-2a-azacenaphthylen-1-yl)-naphthalen-1-yl-methanone, reference compound] | 69 | 40 |  |  |  |  |
| Cc1c(C(=O)c2cccc3ccccc23)c2cccc3c2n1[C@H](CN1CCOCC1)CO3 [R(+)-WIN55212-2, (2-Methyl-3-morpholin-4-ylmethyl-3,4-dihydro-5-oxa-2a-azacenaphthylen-1-yl)-naphthalen-1-yl-methanone, reference compound] | 80 | 35 |  | 39800 |  |  |
| CN/C(=N\S(=O)(=O)c1ccc(Cl)cc1)N1C[C@@H](c2ccccc2)C(c2ccc(Cl)cc2)=N1 (stereo in doubt) [4-Chloro-N-{[3-(4-chloro-phenyl)-4-phenyl-4,5-dihydro-pyrazol-1-yl]-methylamino-methylene}-benzenesulfonamide] | 59 | 25 |  |  |  |  |
| Cc1c(C(=O)NN2CCCCC2)nn(-c2ccc(Cl)cc2Cl)c1-c1ccc(Cl)cc1 [Rimonabant, 5-(4-Chloro-phenyl)-1-(2,4-dichloro-phenyl)-4-methyl-1H-pyrazole-3-carboxylic acid piperidin-1-ylamide, reference compound] | 22 | 18 |  | 5010 |  |  |
| CON/C(=N\S(=O)(=O)c1ccc(Cl)cc1)N1C[C@H](c2cccc(F)c2)C(c2ccc(Cl)cc2)=N1 (stereo in doubt) [4-Chloro-N-{[3-(4-chloro-phenyl)-4-(3-fluoro-phenyl)-4,5-dihydro-pyrazol-1-yl]-methoxyamino-methylene}-benzenesulfonamide] | 90 | 95 |  |  |  |  |
| O=C(NN1CCCCC1)c1nc(-c2ccc(Cl)cc2Cl)n(-c2ccc(Cl)cc2)c1CO [1-(4-Chloro-phenyl)-2-(2,4-dichloro-phenyl)-5-hydroxymethyl-1H-imidazole-4-carboxylic acid piperidin-1-ylamide] |  |  | 631 | 100000 | 4.7 |  |
| CN(C)CCNC(=NS(=O)(=O)N1CCCCC1)N1CC(c2ccccc2)C(c2ccc(Cl)cc2)=N1 (centres unmarked) [Piperidine-1-sulfonic acid [3-(4-chloro-phenyl)-4-phenyl-4,5-dihydro-pyrazol-1-yl]-(2-dimethylamino-ethylamino)-methyleneamide] | 71 | 64 |  | 100000 | 4.0 |  |
| CSc1c(C(=O)NN2CCCCC2)nc(-c2ccccc2Cl)n1-c1ccc(Cl)cc1 [1-(4-Chloro-phenyl)-2-(2-chloro-phenyl)-5-methylsulfanyl-1H-imidazole-4-carboxylic acid piperidin-1-ylamide] | 56 | 36 | 6310 | 6.31 |  |  |
| Cc1c(C(=O)NN2CCCCC2)nc(-c2ccc(Cl)cc2Cl)n1-c1ccccn1 [2-(2,4-Dichloro-phenyl)-5-methyl-1-pyridin-2-yl-1H-imidazole-4-carboxylic acid piperidin-1-ylamide] |  |  | 631 | 100000 | 4.1 |  |
| O=C(NN1CCCCC1)c1nc(-c2ccc(Cl)cc2Cl)n(-c2ccc(Cl)cc2)c1CF [1-(4-Chloro-phenyl)-2-(2,4-dichloro-phenyl)-5-fluoromethyl-1H-imidazole-4-carboxylic acid piperidin-1-ylamide] |  |  | 794 | 6310 | 5.5 |  |
| CN/C(=N\S(=O)(=O)N(C)C)N1CC(c2cccc(F)c2)C(c2ccc(Cl)cc2)=N1 (centres unmarked) [N-{[3-(4-Chloro-phenyl)-4-(3-fluoro-phenyl)-4,5-dihydro-pyrazol-1-yl]-methylamino-methylene}-N,N-dimethyl-sulfonamide] | 72 | 77 |  | 100 | 5.3 |  |
| Cc1c(C=C(c2cc(F)cc(F)c2)S(C)(=O)=O)nn(-c2ccc(Cl)cc2Cl)c1-c1ccc(Br)cc1 [5-(4-Bromo-phenyl)-1-(2,4-dichloro-phenyl)-3-(2-(3,5-difluoro-phenyl)-2-methanesulfonyl-vinyl]-4-methyl-1H-pyrazole] |  |  | 1260 | 100000 | 4.0 |  |
| CCc1c(C(=O)NN2CCCCC2)nc(-c2ccc(Cl)cc2Cl)n1-c1ccc(Cl)cc1 [1-(4-Chloro-phenyl)-2-(2,4-dichloro-phenyl)-5-ethyl-1H-imidazol-4-carboxylic acid piperidin-1-ylamide] |  |  |  | 5010 | 5.5 | Ki [2]: 501 nM |
| NC(Cc1ccc(Cl)c(Cl)c1)C(=O)N1CC(c2ccccc2)C(c2ccc(Cl)cc2)=N1 (centres unmarked) [2-Amino-1-[3-(4-chloro-phenyl)-4-phenyl-4,5-dihydro-pyrazol-1-yl]-3-(3,4-dichloro-phenyl)-propan-1-one] |  |  | 631 | 3980 | 4.8 |  |
| CNC(=NS(=O)(=O)N1CCCCC1)N1CC(c2cccc(F)c2)C(c2ccc(Cl)cc2)=N1 (centres unmarked) [Piperidine-1-sulfonic acid [3-(4-chloro-phenyl)-4-(3-fluoro-phenyl)-4,5-dihydro-pyrazol-1-yl]-methylamino-methyleneamide] |  |  | 794 | 31600 | 6.3 |  |
| CSc1c(C(=O)NC2CCCCC2)nc(-c2ccc(Cl)cc2Cl)n1-c1ccc(Cl)cc1 [1-(4-Chloro-phenyl)-2-(2,4-dichloro-phenyl)-5-methylsulfanyl-1H-imidazole-4-carboxylic acid cyclohexylamide] |  |  |  | 501 |  | Affinity to CB2 [2]: 6.6; pKi (rat SUR2A; rat SUR2A in COS cell membranes): 5.8 |
| CCc1c(C(=O)NC2CCCCC2)nc(-c2ncccc2C)n1-c1ccc(Cl)cc1 [1-(4-Chloro-phenyl)-5-ethyl-2-(3-methyl-pyridin-2-yl)-1H-imidazole-4-carboxylic acid cyclohexylamide] |  |  |  |  | 5.5 | Ki [2]: 794 nM; Ki (hamster SUR1): 100000 nM |
| CN/C(=N\S(=O)(=O)c1ccc(C(F)(F)F)cc1)N1CC(c2cccnc2)C(c2ccc(Cl)cc2)=N1 (centres unmarked) [N-([3-(4-Chloro-phenyl)-4-pyridin-3-yl-4,5-dihydro-pyrazol-1-yl]-methylamino-methylene}-4-trifluoromethyl-benzenesulfonamide] | 58 | 31 |  | 501 | 4.9 |  |
| Cc1c(C(=O)NN2CCCCCC2)nc(-c2ccc(Cl)cc2Cl)n1-c1ccc(Cl)cc1 [1-(4-Chloro-phenyl)-2-(2,4-dichloro-phenyl)-5-methyl-1H-imidazole-4-carboxylic acid azepan-1-ylamide] |  |  | 25.1 | 6310 | 5.7 |  |
| O=C(NN1CCCCC1)c1cn(-c2ccc(Cl)cc2)c(-c2ccc(Cl)cc2Cl)n1 [1-(4-Chloro-phenyl)-2-(2,4-dichloro-phenyl)-1H-imidazole-4-carboxylic acid piperidin-1-ylamide] |  |  | 631 | 31600 | 5.3 |  |
| N/C(=N\S(=O)(=O)c1ccc(Cl)cc1)N1C[C@@H](c2ccccc2)C(c2ccc(Cl)cc2)=N1 (stereo in doubt) [N-{Amino-[3-(4-chloro-phenyl)-4-phenyl-4,5-dihydro-pyrazol-1-yl]-methylene}-4-chloro-benzenesulfonamide] |  |  |  | 794 | 5.4 | Ki [2]: 158 nM |
| CN/C(=N\S(=O)(=O)c1ccc(Cl)cc1)N1C[C@H](c2ccccc2)C(c2ccc(Cl)cc2)=N1 | 42 | 22 |  | 501 |  |  |
